Measured values as given in patent US11168102B1, “Bicyclic heteroaryl compounds and uses thereof” (Revolution Medicines, Inc., priority 2019, dated 2021).
Read-outs that look alike come from different tables or passages of the source.

Tests used:
[1] = molecular target: SOS1 catalytic domain (residues 564-1049) (Homo sapiens (Human), UniProt Q07889); test: Potency assay: binding affinity to SOS1 by Surface Plasmon Resonance (SPR); settings: avi-tagged SOS1 catalytic domain immobilized on sensor chip; 1:1 equilibrium binding fit
Chain of SOS1 catalytic domain (residues 564-1049) (Q07889 564-1049): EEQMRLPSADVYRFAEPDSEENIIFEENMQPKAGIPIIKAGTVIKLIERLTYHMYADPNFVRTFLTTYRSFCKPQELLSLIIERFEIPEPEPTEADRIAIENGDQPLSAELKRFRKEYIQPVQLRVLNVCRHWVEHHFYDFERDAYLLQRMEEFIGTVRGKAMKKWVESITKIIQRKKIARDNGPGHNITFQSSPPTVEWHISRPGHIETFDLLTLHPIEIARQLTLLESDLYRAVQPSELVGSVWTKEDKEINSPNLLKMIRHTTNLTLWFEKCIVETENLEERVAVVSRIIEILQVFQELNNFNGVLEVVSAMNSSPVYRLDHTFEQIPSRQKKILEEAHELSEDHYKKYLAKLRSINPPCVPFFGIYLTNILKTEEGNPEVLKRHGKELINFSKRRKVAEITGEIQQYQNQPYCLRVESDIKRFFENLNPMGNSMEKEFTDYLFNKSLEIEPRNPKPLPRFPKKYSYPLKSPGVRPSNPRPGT

[2] = molecular target: SOS1 nucleotide exchange of wild-type KRAS (Homo sapiens (Human), UniProt Q07889); test: Mode of action assay: inhibition of SOS1 nucleotide exchange activity (TR-FRET); format: biochemical; settings: SOS1 catalytic domain (564-1049), avi-tagged KRAS (1-169), EDA-GTP-DY-647P1; three replicates
Chain of SOS1 nucleotide exchange of wild-type KRAS (Q07889 564-1049): as above

[3] = test system: cellular pERK in PC-9 cells (EGFR Ex19Del); test: Potency assay: pERK (AlphaLISA SureFire Ultra p-ERK1/2) in PC-9 cells; format: cell-based; settings: PC-9 cells (EGFR Ex19Del), 1 hour incubation, AlphaLISA SureFire Ultra p-ERK1/2, read-out: SOS1 pERK IC50

IC50 [3] | Compound | Kd [1] | IC50 [2] | IC50 ([3]; Homo sapiens, PC-9, 1 h)
 | CC(=O)N1CCC(c2cc3c(N[C@H](C)c4cccc(C(F)F)c4F)nc(C)nc3n(C)c2=O)CC1 [Example 8-9] | 120 nM | 53.6 nM | 
 | C[C@@H](Nc1ncnc2c1cc(C(=O)N1CC3CC1CO3)c(=O)n2C)c1cccc(C(F)F)c1F (stereo partly drawn) [Example 26-6] |  | > 20000 nM | 8830 nM
 | C[C@@H](Nc1ncnc2c1cc(C1=C[C@@H]3CNC[C@H](C1)O3)c(=O)n2C)c1cccc(C(F)F)c1F [Example 1-15] | 6.29 nM | 39.8 nM | 217 nM
 | C[C@@H](Nc1ncnc2c1cc(C1CCN(CCF)CC1)c(=O)n2C)c1cccc(C(F)F)c1F [Example 8-4] | 29.4 nM | 7.66 nM | 
 | C[C@@H](Nc1ncnc2c1cc(-c1cncnc1)c(=O)n2C)c1cccc(C(F)F)c1F [Example 21-2] | 85.4 nM | 42.9 nM | 
 | Cc1nc(N[C@H](C)c2cccc(C(F)F)c2F)c2cc(C3=CCS(=O)(=O)CC3)c(=O)n(C)c2n1 [Example 1-25] | 101 nM | 67.3 nM | 83.7 nM
 | C[C@@H]1COC[C@H](C)N1C(=O)c1cc2c(N[C@H](C)c3cccc(C(F)F)c3F)ncnc2n(C)c1=O [Example 26-25] | 350 nM | 106 nM | 605 nM
 | C[C@@H](Nc1ncnc2c1cc(-c1ccc[nH]1)c(=O)n2C)c1cccc(C(F)F)c1F [Example 21-1] | 1160 nM | 1070 nM | 
 | C[C@@H](Nc1ncnc2c1cc(C1CCS(=O)(=O)CC1)c(=O)n2C)c1cccc(C(F)F)c1F [Example 8-5] | 37.6 nM | 12.8 nM | 
 | COc1cccc(Cc2cc3c(N[C@H](C)c4cccc(C(F)F)c4F)nc(C)nc3n(C)c2=O)c1OC [Example 20] |  | > 20000 nM | 
 | C[C@@H](Nc1ncnc2c1cc(C1=CCOCC1)c(=O)n2C)c1cccc(C(F)F)c1F [Example 1-5] | 16.3 nM | 32 nM | 222 nM
 | COc1ccc(-c2cc3c(N[C@H](C)c4cccc(C(F)F)c4F)ncnc3n(C)c2=O)cc1OC [Example 21-10] | 849 nM | 532 nM | 611 nM
 | Cc1nc(N[C@H](C)c2cccc(C(F)F)c2F)c2cc(C3=CCOC3)c(=O)n(C)c2n1 [Example 1-7] | 353 nM | 257 nM | 693 nM
 | C[C@@H](Nc1ncnc2c1cc(C1CCOCC1)c(=O)n2C)c1cccc(C(F)F)c1F [Example 1-30] | 20.1 nM | 45.8 nM | 143 nM
 | C[C@@H](Nc1ncnc2c1cc(C(=O)N1CCn3cncc3C1)c(=O)n2C)c1cccc(C(F)F)c1F [Example 26-30] | 260 nM | 86.1 nM | 656 nM
 | C[C@@H](Nc1ncnc2c1cc(C1=C[C@H]3CNC[C@@H](C1)O3)c(=O)n2C)c1cccc(C(F)F)c1F [Example 1-13] | 13.8 nM | 19.3 nM | 195 nM
 | C[C@@H]1CN(C(=O)c2cc3c(N[C@H](C)c4cccc(C(F)F)c4F)ncnc3n(C)c2=O)C[C@H](C)O1 [Example 26-22] | 474 nM | 113 nM | 2610 nM
 | Cc1nc(N[C@H](C)c2cccc(C(F)F)c2F)c2cc(C3=CCN(C4COC4)CC3)c(=O)n(C)c2n1 [Example 1-26] | 61 nM | 26.4 nM | 260 nM
 | Cc1nc(N[C@H](C)c2cccc(C(F)F)c2F)c2cc(C3=CCN(C)CC3)c(=O)n(C)c2n1 [Example 1-10] | 23.2 nM | 42.9 nM | 425 nM
 | C[C@@H](Nc1ncnc2c1cc(C(=O)N1CCN(C)c3ncccc31)c(=O)n2C)c1cccc(C(F)F)c1F [Example 26-49] | 311 nM | 176 nM | 959 nM
 | C[C@@H](Nc1ncnc2c1cc(C(=O)N1CC(C)(O)C1)c(=O)n2C)c1cccc(C(F)F)c1F [Example 26-3] | 404 nM | 407 nM | 659 nM
 | Cc1nc(N[C@H](C)c2cccc(C(F)F)c2F)c2cc(C3(F)CCN(C)CC3)c(=O)n(C)c2n1 [Example 29-4] | 52.2 nM | 15.9 nM | 144 nM
 | Cc1nc(N[C@H](C)c2cccc(C(F)F)c2F)c2cc(N3CCNCC3=O)c(=O)n(C)c2n1 [Example 2-4] | 153 nM | 89.2 nM | 906 nM
 | Cc1nc(N[C@H](C)c2cccc(C(F)F)c2F)c2cc(C3CCN(C4COC4)CC3)c(=O)n(C)c2n1 [Example 8-14] | 200 nM | 81.2 nM | 
 | Cc1nc(N[C@H](C)c2cccc(C(F)F)c2F)c2cc(C3=CCCOC3)c(=O)n(CCO)c2n1 [Example 11-1] | 81.3 nM |  | 
 | Cc1nc(N[C@H](C)c2cccc(C(F)F)c2F)c2cc(-c3cccnc3OCCO)c(=O)n(C)c2n1 [Example 21-11] | 234 nM | 173 nM | 452 nM
 | C[C@@H](Nc1ncnc2c1cc(C1CCN(S(C)(=O)=O)CC1)c(=O)n2C)c1cccc(C(F)F)c1F [Example 8-15] | 90.4 nM | 40.1 nM | 

IC50 [3] | Compound | Kd [1] | IC50 [2] | IC50 ([3]; Homo sapiens, PC-9, 1 h)
 | CC(=O)N1CC=C(c2cc3c(N[C@H](C)c4cccc(C(C)(F)F)c4)ncnc3n(C)c2=O)CC1 [Example 1-12] | 36.8 nM | 34 nM | 125 nM
 | Cc1nc(N[C@H](C)c2cccc(C(F)F)c2F)c2cc(C3CCS(=O)(=O)CC3)c(=O)n(C)c2n1 [Example 8-12] | 83.4 nM | 65 nM | 
 | COc1ccc(Cc2cc3c(N[C@H](C)c4cccc(C(F)F)c4F)nc(C)nc3n(C)c2=O)cc1OC [Example 20-1] |  | 6170 nM | 
 | C[C@@H](Nc1ncnc2c1cc(C(=O)N1CCOCC1)c(=O)n2C)c1cccc(C(F)F)c1F [Example 26-2] | 118 nM | 102 nM | 314 nM
 | C[C@@H](Nc1ncnc2c1cc(-c1ccc3nonc3c1)c(=O)n2C)c1cccc(C(F)F)c1F [Example 21-8] | 336 nM | 235 nM | 
 | C[C@@H](Nc1ncnc2c1cc(C(=O)N1C3CCC1COC3)c(=O)n2C)c1cccc(C(F)F)c1F [Example 26-12] | 158 nM | 107 nM | 861 nM
 | C[C@@H](Nc1ncnc2c1cc(C(=O)N1CCN(C3COC3)CC1)c(=O)n2C)c1cccc(C(F)F)c1F [Example 26-43] | 53.6 nM | 37 nM | 181 nM
 | C[C@@H](Nc1ncnc2c1cc(C1=CCS(=O)(=O)CC1)c(=O)n2C)c1cccc(C(F)F)c1F [Example 1-17] | 21.3 nM | 13 nM | 50.7 nM
 | CC(=O)N1CC=C(c2cc3c(N[C@H](C)c4cccc(C(F)F)c4F)nc(C)nc3n(C)c2=O)CC1 [Example 1-21] | 137 nM | 95.6 nM | 173 nM
 | CC(=O)N1CCC=C(c2cc3c(N[C@H](C)c4cccc(C(F)F)c4F)ncnc3n(C)c2=O)C1 [Example 1-14] | 19 nM | 53 nM | 218 nM
 | CC(=O)N1CC=C(c2cc3c(N[C@H](C)c4cccc(C(F)F)c4Cl)ncnc3n(C)c2=O)CC1 [Example 1-23] | 122 nM | 94 nM | 70.2 nM
 | Cc1nc(N[C@H](C)c2cccc(C(F)F)c2F)c2cc(N3CC4(COC4)C3)c(=O)n(C)c2n1 [Example 2-3] | 89 nM |  | 188 nM
 | C[C@@H](Nc1ncnc2c1cc(C1=CCNCC1)c(=O)n2C)c1cccc(C(F)(F)F)c1 [Example 1-2] | 13.4 nM | 23.8 nM | 114 nM
 | COC1(c2cc3c(N[C@H](C)c4cccc(C(F)F)c4F)nc(C)nc3n(C)c2=O)CCN(C(C)=O)CC1 [Example 32-32] |  | 4.77 nM | 9.79 nM
 | Cc1nc(N[C@H](C)c2cccc(C(F)F)c2F)c2cc(N3CCN(C)CC3=O)c(=O)n(C)c2n1 [Example 2-5] | 97 nM | 112 nM | 824 nM
 | Cc1nc(N[C@H](C)c2cccc(C(F)F)c2F)c2cc(-c3cccn(CCO)c3=O)c(=O)n(C)c2n1 [Example 21-12] | 216 nM | 123 nM | 588 nM
 | Cc1nc(N[C@H](C)c2cccc(C(F)F)c2F)c2cc(-c3cncnc3)c(=O)n(C)c2n1 [Example 21-4] | 272 nM | 172 nM | 
 | Cc1nc(N[C@H](C)c2cccc(C(F)F)c2F)c2cc(N3CC(F)(F)C3)c(=O)n(C)c2n1 [Example 2-2] |  | 2080 nM | 427 nM
 | C[C@@H](Nc1ncnc2c1cc(-c1ccccc1C#N)c(=O)n2C)c1cccc(C(F)F)c1F [Example 21-6] | 118 nM | 86.4 nM | 
 | C[C@@H](Nc1ncnc2c1cc(-c1cnc(F)nc1)c(=O)n2C)c1cccc(C(F)F)c1F [Example 21-5] | 115 nM | 126 nM | 
 | COc1ncccc1-c1cc2c(N[C@H](C)c3cccc(C(F)F)c3F)ncnc2n(C)c1=O [Example 21-7] | 92.5 nM | 47.1 nM | 
 | C[C@@H](Nc1ncnc2c1cc(C1CCN(CC(F)(F)F)CC1)c(=O)n2C)c1cccc(C(F)F)c1F [Example 8-16] | 136 nM | 77.5 nM | 
 | Cc1nc(N[C@H](C)c2cccc(C(F)F)c2F)c2cc(-c3ccnnc3)c(=O)n(C)c2n1 [Example 21-3] | 330 nM | 120 nM | 
 | Cc1nc(N[C@H](C)c2cccc(C(F)F)c2F)c2cc(C3CCN(CC(F)(F)F)CC3)c(=O)n(C)c2n1 [Example 8-17] | 796 nM | 708 nM | 
 | C[C@@H](Nc1ncnc2c1cc(C1CCN(CC(F)F)CC1)c(=O)n2C)c1cccc(C(F)F)c1F [Example 8-13] | 156 nM | 39.8 nM | 
 | C[C@@H](Nc1ncnc2c1cc(C1CCN(C3COC3)CC1)c(=O)n2C)c1cccc(C(F)F)c1F [Example 8-8] | 62 nM | 30.5 nM | 
201 nM | COC1(c2cc3c(N[C@H](C)c4cccc(C(F)F)c4F)ncnc3n(C)c2=O)CCS(=O)(=NC2CC2)CC1 (single isomer, unassigned) [Example 68] |  |  | 
